# From ChEMBL document CHEMBL1201862, “PubChem BioAssay data set” (2004)
#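 Exposure lasted 48 hours, with cells grown in 96-well plates and compounds tested at five concentrations. Here, GI50 denotes the concentration required for 50% inhibition of growth.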 Active and inactive are the calls of the source. Cut-off read from the data, not from the text of the source: active = GI50 up to about 1.1 µM and inactive = higher.
# Assays:
# Test in all cases: inhibition of tumour cell growth, NCI panel, 48 h
# UACC-257 = system: UACC-257
# OVCAR-3 = system: OVCAR-3
# OVCAR-5 = system: OVCAR-5
# 786-0 = system: 786-0
# HT-29 = system: HT-29
# A498 = system: A498
# SF-268 = system: SF-268
# SF-539 = system: SF-539
# SK-MEL-5 = system: SK-MEL-5
# SK-OV-3 = system: SK-OV-3
# DU-145 = system: DU-145
# RXF 393 = system: RXF 393
# SR = system: SR
# TK-10 = system: TK-10
# CAKI-1 = system: CAKI-1
# M14 = system: M14
# NCI-H226 = system: NCI-H226
# COLO 205 = system: COLO 205
# MCF7 = system: MCF7
# HCT-15 = system: HCT-15
SMILES,GI50 (UACC-257),GI50 (OVCAR-3),GI50 (OVCAR-5),GI50 (786-0),GI50 (HT-29),GI50 (A498),GI50 (SF-268),GI50 (SF-539),GI50 (SK-MEL-5),GI50 (SK-OV-3),GI50 (DU-145),GI50 (RXF 393),GI50 (SR),GI50 (TK-10),GI50 (CAKI-1),GI50 (M14),GI50 (NCI-H226),GI50 (COLO 205),GI50 (MCF7),GI50 (HCT-15)
CCOC(=O)c1c(C)n(CCN2CCN(C)CC2)c2ccc(OC)cc12,16.9 µM (inactive),> 100 µM (inactive),61.4 µM (inactive),38 µM (inactive),24.7 µM (inactive),22.5 µM (inactive),53.7 µM (inactive),30 µM (inactive),16.5 µM (inactive),72.6 µM (inactive),> 100 µM (inactive),30.1 µM (inactive),20 µM (inactive),33.3 µM (inactive),32.3 µM (inactive),16 µM (inactive),29.7 µM (inactive),16.9 µM (inactive),33.6 µM (inactive),28.8 µM
C[C@]12CC[C@@H]3c4cc(OCC(F)(F)F)c(O)cc4CC[C@H]3[C@@H]1CC[C@@H]2O,7.1 µM (inactive),0.459 µM (active),18.7 µM (inactive),3.24 µM (inactive),4.06 µM (inactive),7.66 µM (inactive),9.29 µM (inactive),1.38 µM (inactive),3.38 µM (inactive),1.69 µM (inactive),6.3 µM (inactive),1.52 µM (inactive),0.335 µM (active),12 µM (inactive),2.74 µM (inactive),1.52 µM (inactive),7.05 µM (inactive),15 µM (inactive),2.36 µM (inactive),0.762 µM
COc1ccc(/C(C)=C2\CCCN(Cc3ccccc3)C2)cc1,29.2 µM (inactive),18.6 µM (inactive),31.4 µM (inactive),19.2 µM (inactive),18.9 µM (inactive),33.7 µM (inactive),17.4 µM (inactive),15.8 µM (inactive),17.5 µM (inactive),29.9 µM (inactive),34.6 µM (inactive),18.6 µM (inactive),20.4 µM (inactive),38.8 µM (inactive),22.6 µM (inactive),18.1 µM (inactive),21.5 µM (inactive),17.5 µM (inactive),19.2 µM (inactive),20.3 µM
CC(C)(C)OC(=O)NCCNC(=O)CN(CC(=O)O)C1CCCCC1N(CC(=O)O)CC(=O)O (stereo not given),> 100 µM (inactive),> 100 µM (inactive),> 100 µM (inactive),> 100 µM (inactive),> 100 µM (inactive),> 100 µM (inactive),> 100 µM (inactive),> 100 µM (inactive),> 100 µM (inactive),> 100 µM (inactive),> 100 µM (inactive),> 100 µM (inactive),> 100 µM (inactive),> 100 µM (inactive),> 100 µM (inactive),> 100 µM (inactive),> 100 µM (inactive),> 100 µM (inactive),> 100 µM (inactive),> 100 µM
N#Cc1sc2c(c1OC(=O)c1ccc(Cl)cc1Cl)c(=O)n(-c1ccccc1)c(=S)n2-c1ccccc1,71.9 µM (inactive),19.2 µM (inactive),50.7 µM (inactive),26 µM (inactive),18.2 µM (inactive),24.9 µM (inactive),29.4 µM (inactive),18.2 µM (inactive),16.6 µM (inactive),32.7 µM (inactive),36.1 µM (inactive),19.8 µM (inactive),> 100 µM (inactive),33.6 µM (inactive),23.7 µM (inactive),18.2 µM (inactive),23.8 µM (inactive),19.7 µM (inactive),23 µM (inactive),21.5 µM
C#CC(O)/C=C/CCCCCCC#CC/C=C\CC#CCCCCCC/C=C/C(O)C#C (stereo not given),2.39 µM (inactive),2.7 µM (inactive),2.48 µM (inactive),2.09 µM (inactive),2.06 µM (inactive),3.21 µM (inactive),2.96 µM (inactive),24.5 µM (inactive),1.44 µM (inactive),18 µM (inactive),3.01 µM (inactive),14.1 µM (inactive),2.54 µM (inactive),2.99 µM (inactive),2.29 µM (inactive),1.03 µM (active),5.32 µM (inactive),2 µM (inactive),10.8 µM (inactive),2.55 µM
O=C(/C=C\c1ccsc1)c1ccccc1,16.6 µM (inactive),14.7 µM (inactive),16.1 µM (inactive),7.21 µM (inactive),4.06 µM (inactive),5.31 µM (inactive),6.9 µM (inactive),7.06 µM (inactive),13.8 µM (inactive),17.1 µM (inactive),12.8 µM (inactive),5.75 µM (inactive),2.38 µM (inactive),15 µM (inactive),3.71 µM (inactive),8.47 µM (inactive),16.5 µM (inactive),16.2 µM (inactive),1.74 µM (inactive),3.61 µM
O=c1[nH]cnc2c1ncn2C1SC(CO)C(O)C1O (stereo not given),> 100 µM (inactive),> 100 µM (inactive),> 100 µM (inactive),> 100 µM (inactive),> 100 µM (inactive),> 100 µM (inactive),> 100 µM (inactive),> 100 µM (inactive),> 100 µM (inactive),> 100 µM (inactive),> 100 µM (inactive),> 100 µM (inactive),> 100 µM (inactive),> 100 µM (inactive),> 100 µM (inactive),> 100 µM (inactive),> 100 µM (inactive),> 100 µM (inactive),> 100 µM (inactive),> 100 µM
O=C(CC(C(=O)c1ccsc1)c1cccs1)c1ccccc1 (stereo not given),> 100 µM (inactive),> 100 µM (inactive),> 100 µM (inactive),> 100 µM (inactive),82.8 µM (inactive),29.9 µM (inactive),> 100 µM (inactive),> 100 µM (inactive),70.5 µM (inactive),> 100 µM (inactive),54.6 µM (inactive),14 µM (inactive),76.9 µM (inactive),> 100 µM (inactive),> 100 µM (inactive),69.2 µM (inactive),> 100 µM (inactive),> 100 µM (inactive),45.1 µM (inactive),56.4 µM
O=C(/C=C1\C[C@H]2C=Nc3ccccc3C(=O)N2C1)NCCCNC(=O)/C=C1\C[C@H]2C=Nc3ccccc3C(=O)N2C1,16.5 µM (inactive),12 µM (inactive),21.2 µM (inactive),3.03 µM (inactive),16.4 µM (inactive),17.5 µM (inactive),16.7 µM (inactive),18.3 µM (inactive),16.1 µM (inactive),18.5 µM (inactive),18.5 µM (inactive),13.6 µM (inactive),2.11 µM (inactive),19.8 µM (inactive),13.3 µM (inactive),14.4 µM (inactive),20.7 µM (inactive),12.9 µM (inactive),16.7 µM (inactive),18.1 µM
COc1ccc(NC(=O)C2=C(SC)C(C#N)C(=O)N=C2N)cc1 (stereo not given),> 100 µM (inactive),> 100 µM (inactive),> 100 µM (inactive),65.8 µM (inactive),> 100 µM (inactive),> 100 µM (inactive),> 100 µM (inactive),> 100 µM (inactive),> 100 µM (inactive),> 100 µM (inactive),> 100 µM (inactive),> 100 µM (inactive),> 100 µM (inactive),> 100 µM (inactive),46.3 µM (inactive),> 100 µM (inactive),> 100 µM (inactive),55.7 µM (inactive),> 100 µM (inactive),> 100 µM
CC1C(NNc2ccccc2)Oc2cc3c(cc2C1c1ccccc1O)OCO3 (stereo not given),6.89 µM (inactive),11.8 µM (inactive),4.61 µM (inactive),5.53 µM (inactive),6.03 µM (inactive),15.7 µM (inactive),12.2 µM (inactive),2.01 µM (inactive),11.6 µM (inactive),10.5 µM (inactive),3.89 µM (inactive),15.7 µM (inactive),0.284 µM (active),4.81 µM (inactive),0.962 µM (active),1.93 µM (inactive),12.8 µM (inactive),11.3 µM (inactive),3.94 µM (inactive),1.7 µM
O=[As]O,> 48.6 µM (inactive),> 45.7 µM (inactive),> 100 µM (inactive),> 57.3 µM (inactive),> 66.2 µM (inactive),> 74.6 µM (inactive),> 47.1 µM (inactive),22.8 µM (inactive),32.4 µM (inactive),> 100 µM (inactive),> 100 µM (inactive),> 32.9 µM (inactive),18.9 µM (inactive),> 100 µM (inactive),> 56.1 µM (inactive),> 50.5 µM (inactive),> 48.3 µM (inactive),> 90.6 µM (inactive),28.6 µM (inactive),> 52.5 µM
CC[C@H](C)[C@H]1NC(=O)[C@@H](NC(=O)[C@@H](CC(C)C)N(C)CC2CCCN2C(=O)C(C)=O)[C@@H](C)OC(=O)[C@H](Cc2ccc(OC)cc2)N(C)C(=O)C2CCCN2C(=O)[C@H](CC(C)C)NC(=O)[C@@H](C)C(=O)[C@H](C(C)C)OC(=O)C[C@@H]1O (stereo not given in full),0.00443 µM (active),0.00324 µM (active),0.00393 µM (active),0.00494 µM (active),0.00255 µM (active),0.00471 µM (active),0.00488 µM (active),< 0.0025 µM (active),0.00311 µM (active),0.00376 µM (active),< 0.0025 µM (active),< 0.0025 µM (active),0.00251 µM (active),0.00853 µM (active),0.0221 µM (active),0.00374 µM (active),0.0152 µM (active),0.00293 µM (active),< 0.0025 µM (active),0.0769 µM
